Laboratory results reported in patent publication US20240247253A1, “PRODUCTION METHOD OF POLYPEPTIDE, TAG, EXPRESSION VECTOR, EVALUATION METHOD OF POLYPEPTIDE, PRODUCTION METHOD OF NUCLEIC ACID DISPLAY LIBRARY, AND SCREENING METHOD” (FUJIFILM Corporation, priority 2021, published 2024).

How the values were obtained:
[1] = test system: cell-free peptide synthesis system derived from Escherichia coli; assay: Cell-free biosynthesis of the integrin binding peptide fusion protein with N-terminal tag, 1 hour reaction, amount measured by ELISA; type: biochemical; conditions: relative value, control example without tag = 1; fusion protein SEQ ID NO: 5; 37° C. for 1 hour; average of two measurements
Excerpt: In the cell-free peptide synthesis system derived from Escherichia coli, the effect of the VKKX tag on the biosynthesis amount of the polypeptide was examined. As a polypeptide to be biosynthesized, an integrin binding peptide containing cysteine and chloroacetyl lysine was selected. In this polypeptide, a thiol group of cysteine and a chloroacetyl group of chloroacetyl lysine spontaneously form a thioether bond to become a cyclic polypeptide.
A fusion protein in which an integrin binding peptide, a Myc tag, and a HiBiT tag were linked in this order was designed. As a spacer, Gly-Gly-Ser was inserted between the integrin binding peptide and the Myc tag and between the Myc tag and the HiBiT tag. The amino acid sequence of this fusion protein is SEQ ID NO: 5, and the base sequence encoding this fusion protein is SEQ ID NO: 6. In SEQ ID NO: 5, the integrin binding peptide ranges to the amino acid at the twelfth position (that is, alanine) from an N-terminal, and the amino acid at eleventh position from the N-terminal is chloroacetyl lysine. The triplet TAG at the positions 31 to 33 from the 5′ terminal of the base sequence set forth in SEQ ID NO: 6 was assigned to the codon of chloroacetyl lysine. The end of the base sequence set forth in SEQ ID NO: 6 is the stop codon TAA.
A base sequence encoding a tagged fusion protein in which methionine, a VKKX tag (any of SEQ ID nOs: 7 to 52), and a fusion protein (SEQ ID NO: 5) were linked in this order was designed. In this base sequence, a base sequence (any of SEQ ID nOs: 53 to 98) encoding a VKKX tag is arranged immediately after the start codon ATG, and a base sequence encoding a fusion protein immediately after the base sequence (SEQ ID NO: 6) encoding the VKKX tag is arranged.
As a control example for evaluating the effect of the VKKX tag, a base sequence in which a base sequence (SEQ ID NO: 6) encoding a fusion protein arranged immediately after the start codon ATG was designed.
In order to translate chloroacetyl lysine which is an unnatural amino acid, a tRNA in which the anticodon was CUA and paired with the UAG codon of mRNA was prepared. This tRNA was aminoacylated with an N-chloroacetyl lysine hosphoro 2′ deoxyribocytidylylriboadenosine (pdCpA) ester. This aminoacyl tRNA is referred to as an Aminoacyl tRNA (1).
(§1) The cell-free biosynthesis of the polypeptide was carried out in a translation solution containing a template DNA, PUREfrex 2.0 (GeneFrontier, PF201-0.25-5), and Aminoacyl tRNA (1). 1.25 μL (62.5 ng) of the template DNA prepared to 50 ng/μL, 2.5 μL of PUREfrex 2.0 Solution I, 0.25 μL of Solution II, 0.5 μL of Solution III, and 0.5 μL of Aminoacyl tRNA (1) were mixed and mixture was subjected to a reaction at 37° ° C. for 1 hour.
The amount of the biosynthesized polypeptide was measured by ELISA. 50 ng of Recombinant Human Integrin αVβ3 (R&D systems, 3050-AV-050) was immobilized in each well of a 96-well plate and blocked with Blocker Casein in PBS (Thermo, 37528), and then a cell-free biosynthesis solution diluted with Can Get Signal Immunoreaction Enhancer Solution I (TOYOBO, NKB-101) containing 5 mmol/L MgCl2 was added thereto, and the mixture was subjected to a reaction at room temperature for 3 hours. After washing with 5 mmol/L MgCl2/0.05% Tween 20-containing phosphate buffered saline (PBS), an anti-Myc antibody (Cell Signaling, 14038S) diluted with Can Get Signal Immunoreaction Enhancer Solution II (TOYOBO, NKB-101) was added thereto, and the mixture was subjected to a reaction at room temperature for 2 hours. After washing with PBS containing 5 mmol/L MgCl2/0.05% Tween 20, Super Signal ELISA Femto Substrate (Thermo, 37075) was added thereto, and the luminescence was measured. The amount of the fusion protein in the cell-free biosynthesis solution was calculated based on a calibration curve created from the fusion protein having a known concentration. The luminescence measurement was performed twice, and the average value of the amounts of the fusion protein was calculated. […]

[2] = test system: cell-free peptide synthesis system derived from Escherichia coli; assay: Cell-free biosynthesis of the integrin binding peptide fusion protein with tag, reaction time 10 minutes, ELISA; type: biochemical; conditions: relative value, control without tag = 1; reaction time 10 minutes; fusion protein SEQ ID NO: 5; SKIK encoded by SEQ ID NO: 110
Protocol: as §1
The amount of the biosynthesized polypeptide was measured by ELISA. 50 ng of Recombinant Human Integrin αVβ3 (R&D systems, 3050-AV-050) was immobilized in each well of a 96-well plate and blocked with Blocker Casein in PBS (Thermo, 37528), and then a cell-free biosynthesis solution diluted with Can Get Signal Immunoreaction Enhancer Solution I (TOYOBO, NKB-101) containing 5 mmol/L MgCl2 was added thereto, and the mixture was subjected to a reaction at room temperature for 3 hours. After washing with 5 mmol/L MgCl2/0.05% Tween 20-containing phosphate buffered saline (PBS), an anti-Myc antibody (Cell Signaling, 14038S) diluted with Can Get Signal Immunoreaction Enhancer Solution II (TOYOBO, NKB-101) was added thereto, and the mixture was subjected to a reaction at room temperature for 2 hours. After washing with PBS containing 5 mmol/L MgCl2/0.05% Tween 20, Super Signal ELISA Femto Substrate (Thermo, 37075) was added thereto, and the luminescence was measured. The amount of the fusion protein in the cell-free biosynthesis solution was calculated based on a calibration curve created from the fusion protein having a known concentration. The luminescence measurement was performed twice, and the average value of the amounts of the fusion protein was calculated. Table 2-1 and Table 2-2 show relative values of the biosynthesis amounts of respective fusion proteins in a case where the amount of the fusion protein of the control example was set to the reference value 1.
As a comparative control, a SKIK tag represented by SEQ ID NO: 107 was selected. The polypeptide to be biosynthesized is the fusion protein containing the integrin binding peptide, as in Example 1.
Using a template DNA including DNA sequences (SEQ ID NOs: 73 to 98) encoding VKKX tags represented by SEQ ID NOs: 27 to 52 produced in Example 1, and a DNA sequence (SEQ ID NO: 110) encoding a SKIK tag represented by SEQ ID NO: 107 produced in Example 2, the biosynthesis reaction was performed in the same manner as in Example 1 by setting the reaction time to 10 minutes. In the same manner in Example 1, the fusion protein was expressed by the cell-free peptide synthesis system and quantified by ELISA. The measurement was performed twice, and the average value of the amounts of the fusion protein was calculated. […] As control example used in Example 1, the control example of the reference value 1 has a form in which the base sequence (SEQ ID NO: 6) encoding the fusion protein is arranged immediately after the start codon ATG.

Substance | Biosynthesis amount of fusion protein [1] | Biosynthesis amount of fusion protein [2]
SEQ ID NO: 29: VKKX tag, amino acid sequence VKKTKTD (VKKX Tag) | 6.09 | 15.90
SEQ ID NO: 11: VKKX tag, amino acid sequence VKKS (VKKX Tag) | 6.05 | 
SEQ ID NO: 18: VKKX tag, amino acid sequence VKKE (VKKX Tag) | 2.94 | 
SEQ ID NO: 42: VKKX tag, amino acid sequence VKKTKTKDD (VKKX Tag) | 5.35 | 14.95
SEQ ID NO: 16: VKKX tag, amino acid sequence VKKL (VKKX Tag) | 2.71 | 
SEQ ID NO: 44: VKKX tag, amino acid sequence VKKTKTTKT (VKKX Tag) | 7.83 | 7.18
SEQ ID NO: 45: VKKX tag, amino acid sequence VKKTKTTKD (VKKX Tag) | 7.83 | 10.61
SEQ ID NO: 50: VKKX tag, amino acid sequence VKKTKTKDKK (VKKX Tag) | 7.78 | 35.42
SEQ ID NO: 36: VKKX tag, amino acid sequence VKKTKTKKT (VKKX Tag) | 10.50 | 13.13
SEQ ID NO: 49: VKKX tag, amino acid sequence VKKTKTKTTK (VKKX Tag) | 7.44 | 8.75
SEQ ID NO: 35: VKKX tag, amino acid sequence VKKTKTDD (VKKX Tag) | 5.75 | 8.49
SEQ ID NO: 34: VKKX tag, amino acid sequence VKKTKTTT (VKKX Tag) | 6.69 | 8.59
SEQ ID NO: 10: VKKX tag, amino acid sequence VKKR (VKKX Tag) | 5.75 | 
SEQ ID NO: 26: VKKX tag, amino acid sequence VKKF (VKKX Tag) | 3.69 | 
SEQ ID NO: 41: VKKX tag, amino acid sequence VKKTKTKDT (VKKX Tag) | 6.27 | 28.80
SEQ ID NO: 8: VKKX tag, amino acid sequence VKKK (VKKX Tag) | 6.15 | 
SEQ ID NO: 25: VKKX tag, amino acid sequence VKKW (VKKX Tag) | 3.52 | 
SEQ ID NO: 51: VKKX tag, amino acid sequence VKKTKTTTKK (VKKX Tag) | 6.29 | 15.28
SEQ ID NO: 15: VKKX tag, amino acid sequence VKKG (VKKX Tag) | 2.39 | 

Substance | Biosynthesis amount of fusion protein [1] | Biosynthesis amount of fusion protein [2]
SEQ ID NO: 9: VKKX tag, amino acid sequence VKKT (VKKX Tag) | 5.66 | 
SEQ ID NO: 38: VKKX tag, amino acid sequence VKKTKTKTK (VKKX Tag) | 8.42 | 16.95
SEQ ID NO: 21: VKKX tag, amino acid sequence VKKC (VKKX Tag) | 3.14 | 
SEQ ID NO: 33: VKKX tag, amino acid sequence VKKTKTTK (VKKX Tag) | 6.54 | 8.17
SEQ ID NO: 32: VKKX tag, amino acid sequence VKKTKTKD (VKKX Tag) | 8.04 | 20.56
SEQ ID NO: 13: VKKX tag, amino acid sequence VKKM (VKKX Tag) | 1.94 | 
SEQ ID NO: 43: VKKX tag, amino acid sequence VKKTKTTKK (VKKX Tag) | 9.45 | 23.35
SEQ ID NO: 39: VKKX tag, amino acid sequence VKKTKTKTT (VKKX Tag) | 7.22 | 7.57
SEQ ID NO: 40: VKKX tag, amino acid sequence VKKTKTKDK (VKKX Tag) | 8.49 | 10.77
SEQ ID NO: 20: VKKX tag, amino acid sequence VKKD (VKKX Tag) | 3.05 | 
SEQ ID NO: 17: VKKX tag, amino acid sequence VKKV (VKKX Tag) | 2.90 | 
SEQ ID NO: 14: VKKX tag, amino acid sequence VKKP (VKKX Tag) | 2.23 | 
SEQ ID NO: 24: VKKX tag, amino acid sequence VKKQ (VKKX Tag) | 3.52 | 
SEQ ID NO: 22: VKKX tag, amino acid sequence VKKN (VKKX Tag) | 3.17 | 
SEQ ID NO: 12: VKKX tag, amino acid sequence VKKH (VKKX Tag) | 5.82 | 
SEQ ID NO: 7: VKKX tag, amino acid sequence VKKI (VKKX Tag) | 4.40 | 
SEQ ID NO: 23: VKKX tag, amino acid sequence VKKY (VKKX Tag) | 3.30 | 
SEQ ID NO: 19: VKKX tag, amino acid sequence VKKA (VKKX Tag) | 3.01 | 
